# Laboratory results: publication PMC6006164, “Natural cyclopeptide RA-V inhibits the NF-κB signaling pathway by targeting TAK1” (Cell Death & Disease, 2018)
# Key:
# NF-κB-regulated reporter = test: NF-κB reporter induced by transfected TRAF2, MyD88, IKKβ or p65 plasmid; assay type: cell-based; conditions: HEK293T; RA-V 48 h
# Protocol: To determine where RA-V acts in this pathway, TRAF2, MyD88, IKKβ, or p65 plasmid was transiently transfected into HEK293T cells together with the 5 × κB-lucieferase and pTK-Renilla reporters. […] Western blots were performed to investigate the effect of RA-V on NF-κB-associated proteins in HEK293T cells transfected with the TRAF2, MyD88, or IKKβ plasmid. […] Moreover, we used a computational method to predict where RA-V is likely to act in this pathway.
# Fig. 3 RA-V represses NF-κB activation upstream of the IKK protein complex. a RA-V inhibited the TRAF2- and MyD88-induced expression of the NF-κB reporter in a dose-dependent manner. The indicated plasmids were transfected into HEK293T cells together with the 5 × κB-luciferase and pTK-Renilla reporters. Twenty-four hours after transfection, the cells were incubated with various concentrations of RA-V for 48 h before luciferase assays were performed. b RA-V inhibited TRAF2- and MyD88-induced p65 phosphorylation and IκBα phosphorylation in a dose-dependent manner. HEK293T cells were transfected with TRAF2, MyD88, IKKβ, or p65 for 24 h and then treated with various concentrations of RA-V for 48 h. The cell lysates were immunoblotted with the indicated antibodies. c RA-V likely exerts its inhibitory activity on the NF-κB pathway by acting on the TRAF6-TAK1–TAB1/2 complex. […]
# TAK1–TAB1 interaction = biological target: T1, TAK1–TAB1 interaction (Homo sapiens, UniProt O43318+Q15750); test: Co-immunoprecipitation of TAK1 and TAB1; assay type: cell-based; conditions: HEK293T, Flag-TAK1 and HA-TAB1; RA-V 800 nM 6 h
# T1 construct: expressed in transfected cells; host or cells: HEK293T
# T1 sequence (O43318 1-579 isoform O43318-2): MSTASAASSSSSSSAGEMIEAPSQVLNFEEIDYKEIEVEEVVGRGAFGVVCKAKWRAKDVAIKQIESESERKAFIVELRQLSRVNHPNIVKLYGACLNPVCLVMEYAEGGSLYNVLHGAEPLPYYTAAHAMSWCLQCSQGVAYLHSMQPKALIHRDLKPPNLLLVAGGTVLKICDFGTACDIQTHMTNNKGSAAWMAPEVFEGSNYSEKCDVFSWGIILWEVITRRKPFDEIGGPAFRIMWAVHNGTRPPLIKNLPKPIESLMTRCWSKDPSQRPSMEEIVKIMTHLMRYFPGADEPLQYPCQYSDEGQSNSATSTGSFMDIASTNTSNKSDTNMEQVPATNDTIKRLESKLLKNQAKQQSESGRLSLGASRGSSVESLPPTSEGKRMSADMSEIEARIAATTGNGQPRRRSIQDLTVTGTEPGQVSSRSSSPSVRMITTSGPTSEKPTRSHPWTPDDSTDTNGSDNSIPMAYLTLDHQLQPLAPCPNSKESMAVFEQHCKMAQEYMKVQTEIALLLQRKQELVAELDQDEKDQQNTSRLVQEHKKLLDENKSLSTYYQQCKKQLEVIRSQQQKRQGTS
# T1 sequence (Q15750 1-504 partner): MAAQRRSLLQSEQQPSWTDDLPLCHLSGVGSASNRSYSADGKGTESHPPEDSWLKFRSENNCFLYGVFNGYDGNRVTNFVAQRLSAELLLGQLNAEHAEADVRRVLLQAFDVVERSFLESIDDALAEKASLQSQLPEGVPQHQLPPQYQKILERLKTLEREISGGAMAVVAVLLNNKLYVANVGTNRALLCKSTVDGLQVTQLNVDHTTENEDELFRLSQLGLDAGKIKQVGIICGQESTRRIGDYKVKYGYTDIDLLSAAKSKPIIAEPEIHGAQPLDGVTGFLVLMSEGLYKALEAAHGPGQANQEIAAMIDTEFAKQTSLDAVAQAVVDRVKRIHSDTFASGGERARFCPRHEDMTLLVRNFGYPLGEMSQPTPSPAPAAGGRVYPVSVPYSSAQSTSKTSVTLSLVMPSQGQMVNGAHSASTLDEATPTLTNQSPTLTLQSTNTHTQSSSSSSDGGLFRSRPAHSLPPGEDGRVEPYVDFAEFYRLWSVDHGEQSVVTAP
# Protocol: Fig. 4 RA-V blocks the interaction between TAK1 and TAB2. a RA-V blocked the exogenous TAK1–TAB2 interaction. HEK293T cells were transfected with Flag-TAK1 and HA-TAB2 for 24 h and then incubated with various concentrations of RA-V for 6 h. […] HEK293T cells were transfected with Flag-TAK1 and HA-TRAF6 or HA-TAB1 for 24 h and then incubated with RA-V (800 nM) for 6 h. The cell lysates were immunoprecipitated with HA antibody, and immunoblots were performed with the indicated antibodies. d RA-V blocked the endogenous TAK1–TAB2 interaction. HEK293T (left) or RAW264.7 (right) cells were incubated with 800 nM RA-V for 6 h and stimulated with 10 ng/mL TNF-α for 2 h or 1 μg/mL LPS for 3 h, respectively. The cell lysates were immunoprecipitated with TAK1 antibody or control IgG and then immunoblotted with the indicated antibodies. Each experiment was repeated at least three times
# The cell lysates were prepared using radioimmunoprecipitation (RIPA) buffer containing 50 mM Tris-HCl pH 7.4, 150 mM NaCl, 1 mM ethylenediaminetetraacetic acid, 1% Triton X-100, 0.5% deoxycholate, and 0.1% sodium dodecyl sulfate, to which protease inhibitors (Roche) were added. The lysates were incubated with the indicated antibodies before adding 20 μL of Protein A/G agarose for 2 h. After four washes with the same buffer, the immunoprecipitates were boiled in 2 × SDS loading buffer.
substance,measurement,setting,value
RA-V,NF-κB-regulated reporter expression in cells transfected with IKKβ or p65,NF-κB-regulated reporter,no effect
same,NF-κB-regulated reporter expression in cells transfected with TRAF2 or MyD88,NF-κB-regulated reporter,dose-dependently suppressed
same,TAK1–TAB1 interaction,TAK1–TAB1 interaction,does not disrupt
